How the values were obtained:
[1] = target: T1, A disintegrin and metalloproteinase with thrombospondin motifs 5 (Homo sapiens, UniProt Q9UNA0); assay: hADAMTS-5 assay: The basis for the assay is the cleavage of the substrate TBIS-1 (5 FAM-TEGEARGSVILLK (5TAMRA)K-NH2) (SEQ ID NO: 2) by human ADAMTS-5.For the dose response (10 point), 4 μL of a dilution series of compound (2 mM highest concentration, 1/5 dilution in DMSO further diluted 1 in 10 in water, corresponding to a final highest concentration of 20 μM), is transferred to 384 well Fluotrac …
T1 sequence (Q9UNA0 whole entry): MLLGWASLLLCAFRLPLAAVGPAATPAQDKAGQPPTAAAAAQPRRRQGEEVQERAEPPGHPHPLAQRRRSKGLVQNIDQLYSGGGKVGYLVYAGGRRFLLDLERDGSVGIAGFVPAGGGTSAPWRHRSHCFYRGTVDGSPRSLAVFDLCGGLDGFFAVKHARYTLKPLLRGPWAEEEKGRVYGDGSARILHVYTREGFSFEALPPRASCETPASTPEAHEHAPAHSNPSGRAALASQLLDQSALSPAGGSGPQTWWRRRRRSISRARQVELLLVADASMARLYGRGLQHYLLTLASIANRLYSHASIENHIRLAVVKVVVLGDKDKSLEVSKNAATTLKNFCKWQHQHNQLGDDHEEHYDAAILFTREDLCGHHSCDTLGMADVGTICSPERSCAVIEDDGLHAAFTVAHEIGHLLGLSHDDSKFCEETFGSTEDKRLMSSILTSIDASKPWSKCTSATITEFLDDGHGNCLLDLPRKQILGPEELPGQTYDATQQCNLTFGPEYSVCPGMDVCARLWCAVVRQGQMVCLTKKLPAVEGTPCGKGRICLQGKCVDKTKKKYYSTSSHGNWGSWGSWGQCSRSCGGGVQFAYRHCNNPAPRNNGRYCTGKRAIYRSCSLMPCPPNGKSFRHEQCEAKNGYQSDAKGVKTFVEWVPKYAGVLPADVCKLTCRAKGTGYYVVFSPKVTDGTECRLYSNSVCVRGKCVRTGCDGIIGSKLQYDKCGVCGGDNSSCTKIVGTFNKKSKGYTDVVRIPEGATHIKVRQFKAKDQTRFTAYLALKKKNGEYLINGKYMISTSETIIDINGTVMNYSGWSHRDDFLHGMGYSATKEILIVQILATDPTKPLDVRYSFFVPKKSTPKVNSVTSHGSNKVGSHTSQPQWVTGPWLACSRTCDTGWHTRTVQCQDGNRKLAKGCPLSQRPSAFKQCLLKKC

Collagenase 3 = Collagenase 3 (Homo sapiens, UniProt P45452); assay: Human MMP13 is preactivated by incubated the enzyme in the same buffer complemented with 1 mM freshly prepared p-Aminophenylmercuric acetate (AMPA) for 1 h at 37° C.The reaction is initiated by adding to the assay plate 390 MMP FRET Substrate I (10 μL, 2.5 μM) in the same buffer.Finally, the fluorescence is read on the Envision (Perkin Elmer) after an incubation of 45 min at room temperature (Excitation 485 nm, Emission 530).
[2] = target: Matrix metalloproteinase-14 (Homo sapiens, UniProt P50281); assay: hMMP14 assay: The basis for the assay is the cleavage of the substrate 390 MMP FRET Substrate I (Anaspec Cat# AS-27076) by human MMP14 (Biomol, Cat#SE-259).For the dose response (10 point), 4 μL of a dilution series of compound 2 mM highest concentration, 1/5 dilution in DMSO further diluted 1 in 10 in water, corresponding to a final highest concentration of 20 μM), is transferred to 384 well …
[3] = target: Disintegrin and metalloproteinase domain-containing protein 17 (Homo sapiens, UniProt P78536); assay: hTACE assay: The basis for the assay is the cleavage of the substrate 5FAM-LAQAVRSSSRK-5TAMRA (SEQ ID No 3) (Anaspec, custom 34891) by human TACE (R&D SYSTEMS INC., Cat#930-ADB).For the dose response (10 point), 4 μL of a dilution series of compound (2 mM highest concentration, 1/5 dilution in DMSO further diluted 1 in 10 in water, corresponding to a final highest concentration of 20 μM), is …
Chain of Disintegrin and metalloproteinase domain-containing protein 17 (P78536 whole entry, the tested form may be a part): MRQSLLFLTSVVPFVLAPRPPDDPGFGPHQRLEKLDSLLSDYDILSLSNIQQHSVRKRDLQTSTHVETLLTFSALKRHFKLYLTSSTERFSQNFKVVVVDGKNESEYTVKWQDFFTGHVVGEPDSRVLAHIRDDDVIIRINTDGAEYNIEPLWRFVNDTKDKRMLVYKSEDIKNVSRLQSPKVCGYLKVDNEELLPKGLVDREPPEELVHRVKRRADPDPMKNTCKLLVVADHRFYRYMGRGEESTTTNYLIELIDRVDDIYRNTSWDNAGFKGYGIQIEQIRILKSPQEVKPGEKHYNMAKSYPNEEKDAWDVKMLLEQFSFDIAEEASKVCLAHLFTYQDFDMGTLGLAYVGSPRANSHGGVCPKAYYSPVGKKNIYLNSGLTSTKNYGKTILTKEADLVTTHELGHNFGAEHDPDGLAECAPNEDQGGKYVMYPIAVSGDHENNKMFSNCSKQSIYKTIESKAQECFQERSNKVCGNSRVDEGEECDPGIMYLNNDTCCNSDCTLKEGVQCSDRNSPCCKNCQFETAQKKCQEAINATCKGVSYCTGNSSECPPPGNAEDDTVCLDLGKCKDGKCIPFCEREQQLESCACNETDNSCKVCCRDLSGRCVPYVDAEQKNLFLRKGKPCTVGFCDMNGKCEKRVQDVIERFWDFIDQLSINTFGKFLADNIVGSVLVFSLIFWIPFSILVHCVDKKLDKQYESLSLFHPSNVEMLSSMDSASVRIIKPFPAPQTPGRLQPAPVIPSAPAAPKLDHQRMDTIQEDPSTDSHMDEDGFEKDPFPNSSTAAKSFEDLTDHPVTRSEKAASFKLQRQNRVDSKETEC

SMILES | IC50 [1] [nM] | IC50 (Collagenase 3) [nM] | IC50 [2] [nM] | IC50 [3] [nM]
COc1cc(C2CCN(C(=O)CC[C@H]3NC(=O)NC3=O)CC2)cc(OC)c1F | > 100 | > 100 | > 100 | –
COc1cc(C2CCN(C(=O)CCC3(C)NC(=O)NC3=O)CC2)c(C)cc1Cl (stereo not drawn) | > 100 | > 100 | – | > 100
COc1cc(C2CCN(C(=O)CC[C@@]3(C)NC(=O)NC3=O)CC2)cc(Cl)c1Cl | – | > 100 | – | –
COc1c(Cl)cc(Cl)cc1C1CCN(C(=O)CC[C@@]2(C)NC(=O)NC2=O)CC1 | > 100 | > 100 | – | –
COc1cc(C2CCN(C(=O)CC[C@H]3NC(=O)NC3=O)CC2)cc(Cl)c1Cl | – | > 100 | – | –
COc1c(Cl)cc(Cl)cc1C1CCN(C(=O)CC[C@H]2NC(=O)NC2=O)CC1 | > 100 | > 100 | – | > 100
